Reference: PMC4742142, “Identification of novel, in vivo active Chk1 inhibitors utilizing structure guided drug design” (Oncotarget, 2015)
“And” between values parts separate entries of the source, which are not always exact repeats. Equal values may be shown once. “Also recorded” adds a separate entry of the source. Read-outs that look alike come from different tables or passages of the source.

Legend:
[1] = tested on: Colo205 xenografts; assay: Colo205 xenograft antitumor efficacy; type: in vivo
Text: (§1) Xenograft studies were undertaken by Charles River Laboratories Discovery Services, North Carolina. On the day of tumor cell implant, Colo205 cells were harvested and resuspended in 50% Matrigel matrix (BD Biosciences) in PBS at a concentration of 5 × 10^6 cells/mL. Each test mouse received 1 × 10^6 Colo205 cells implanted subcutaneously (SC) in the flank of female athymic nude mice (HRLN or NCr nu/nu), and tumor growth was monitored as the average size approached 100-150 mm^3. The SW620 tumor line was maintained by serial SC transplantation in female athymic nude mice (HRLN nu/nu). Tumor fragments, approximately 1 mm^3 each, were implanted SC into the right flank of each animal and allowed to grow towards a target size of 100-150 mm^3. On day 1 of the study, tumors were randomized into treatment groups before compound administration.
(§2) V158411 was formulated in D5W and administered via IV injection into the tail vein. Cyclic treatment regimens were followed and treatment ranged from 2-3 cycles.
(§3) Tumor size was measured with electronic calipers and tumor volume calculated according to the formula ((width × width) × length) /2.
(§4) The study endpoint was defined as a tumor volume of 750 mm^3 for Colo205 or 1500 mm^3 for SW620, or day 60, whichever came first. Each animal was euthanized when its' tumor reached this endpoint. The time to endpoint (TTE) for each mouse was calculated from the equation TTE = (log10(endpoint volume)-b)/m where b is the intercept and m the slope of the line obtained by linear regression of a log-transformed tumor growth data set.

[2] = tested on: SW620 xenograft; assay: SW620 xenograft antitumor efficacy
Text: as §1, §2, §3, §4

[3] = tested on: A549; assay: Single agent cytotoxicity assay (SRB, 72 hours); type: cell-based; conditions: Homo sapiens, A549, lung
Protocol: (§5) All cells were obtained from the American Type Culture Collection and maintained as low passage stocks. Cells were routinely cultured in DMEM or RPMI1640 containing 10% FCS and 1% penicillin / streptomycin (Invitrogen). The cytotoxicity of V158411 was determined following exposure of cells in 96 well plates using a 10-point titration for 72 hours. Cell proliferation was determined using sulphorhodamine B staining following protein precipitation with 10% TCA.

[4] = tested on: NCI-H520; assay: Single agent cytotoxicity assay (SRB, 72 hours); type: cell-based; conditions: Homo sapiens, NCI-H520, lung
Protocol: as §5

[5] = tested on: HCT116; assay: Single agent cytotoxicity assay (SRB, 72 hours); type: cell-based; conditions: Homo sapiens, HCT-116, HCT116, colon
Protocol: as §5

[6] = tested on: Colo205; assay: Single agent cytotoxicity assay (SRB, 72 hours); type: cell-based; conditions: Homo sapiens, COLO 205, Colo205, colon
Protocol: as §5

[7] = tested on: PC3; assay: Single agent cytotoxicity assay (SRB, 72 hours); type: cell-based; conditions: Homo sapiens, PC-3, PC3, prostate
Protocol: as §5

[8] = tested on: HT29; assay: Single agent cytotoxicity assay (SRB, 72 hours); type: cell-based; conditions: Homo sapiens, HT-29, HT29, colon
Protocol: as §5

[9] = tested on: SW620; assay: Single agent cytotoxicity assay (SRB, 72 hours); type: cell-based; conditions: Homo sapiens, SW-620, SW620, colon
Protocol: as §5

[10] = tested on: NCI-H460; assay: Single agent cytotoxicity assay (SRB, 72 hours); type: cell-based; conditions: Homo sapiens, NCI-H460, lung
Protocol: as §5

[11] = Plasma and tumor pharmacokinetics in HT29 tumor bearing mice; type: in vivo; conditions: mouse, HT29 tumor bearing mice, 30 mg/kg IV
Protocol: Dosing of animals and collection of samples was conducted by Quotient Bioresearch (Rushden) Ltd, UK. V158411 was administered by intravenous (IV) bolus injection to female Balb/C mice, male Sprague-Dawley rats or male beagle dogs. Plasma samples were prepared by protein precipitation with acetonitrile containing internal standard (IS; dextromethorphan, 0.5 μg/mL); the analysis plate was centrifuged at 3,000 rpm for 10 minutes at 4°C. […] The ratios of analyte against IS peak areas were calculated, and concentrations derived from calibration lines generated by Quanlynx (Waters Ltd.).
Pharmacokinetic parameters were calculated using the software package WinNonLin (Pharsight Corp.). Data was analyzed using noncompartmental analysis and fitted using plasma concentration versus time curves.

[12] = target: T1, Chk1 (Homo sapiens, UniProt O14757); assay: In vitro kinase assay, Chk1; type: biochemical
T1 sequence (O14757 1-476): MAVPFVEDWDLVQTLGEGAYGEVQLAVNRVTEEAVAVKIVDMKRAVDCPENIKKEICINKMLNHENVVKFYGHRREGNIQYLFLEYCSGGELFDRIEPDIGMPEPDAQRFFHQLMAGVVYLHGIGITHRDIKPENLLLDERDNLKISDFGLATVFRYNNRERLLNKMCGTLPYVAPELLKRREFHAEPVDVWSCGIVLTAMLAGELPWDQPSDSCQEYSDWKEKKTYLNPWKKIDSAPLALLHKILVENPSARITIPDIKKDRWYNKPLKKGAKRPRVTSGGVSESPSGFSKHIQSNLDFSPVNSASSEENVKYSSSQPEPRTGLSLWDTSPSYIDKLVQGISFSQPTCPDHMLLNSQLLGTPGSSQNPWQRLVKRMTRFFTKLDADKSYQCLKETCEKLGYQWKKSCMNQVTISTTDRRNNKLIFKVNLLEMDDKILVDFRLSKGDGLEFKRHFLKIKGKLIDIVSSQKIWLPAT
Protocol: Kinase assays were performed as previously described.

[13] = Colo205, 75 mg/kg irinotecan IP followed by 30 mg/kg V158411 IV
[14] = Colo205, 75 mg/kg irinotecan IP followed by 60 mg/kg V158411 IV
[15] = SW620, 100 mg/kg irinotecan followed by 30 mg/kg V158411
[16] = SW620, 100 mg/kg irinotecan followed by 60 mg/kg V158411

CN(C)CC(C)(C)COc1ccc2[nH]c(-c3cc(NC(=O)c4cnn(Cc5ccccc5)c4)c[nH]c3=O)cc2c1 [V158411]
Median TTE ([1]; Colo205, 60 mg/kg IV V158411 monotherapy, untreated 19.8 days): 22.3 days | single agent anti-tumor activity ([1]; Colo205, 60 mg/kg V158411 monotherapy): inactive; also recorded: no single agent activity | %TGD [1, 13]: 129% | T-C [1, 13]: 25.6 | Median TTE ([1]; Colo205, 75 mg/kg irinotecan IP followed by 30 mg/kg V158411 IV 2 hours later, q7d 3 cycles): 45.4 days | %TGD [1, 14]: 203% | T-C [1, 14]: 40.2 | Median TTE ([1]; Colo205, 75 mg/kg irinotecan IP followed by 60 mg/kg V158411 IV 2 hours later, q7d 3 cycles, study end day 60): 60.0 days and 60 days | mean body weight nadir ([1]; Colo205, irinotecan plus V158411 combination therapy, day 4): −2.7% | %TGD [2, 15]: 117% | T-C [2, 15]: 15.5 | Median TTE ([2]; SW620, 100 mg/kg irinotecan followed by 30 mg/kg V158411 2 hours later): 28.8 days | %TGD [2, 16]: 154% | T-C [2, 16]: 21.3 | Median TTE ([2]; SW620, 100 mg/kg irinotecan followed by 60 mg/kg V158411 2 hours later): 35.1 days | single agent anti-tumor activity ([2]; SW620, V158411 monotherapy): did not inhibit tumor growth; also recorded: no single agent activity | mean body weight nadir ([2]; SW620, irinotecan plus 60 mg/kg V158411, day 5): −13.3% | GI50 [3]: 1400 ± 350 nM | GI50 [4]: 550 ± 140 nM | GI50 [5]: 4000 ± 780 nM | GI50 [6]: 1600 ± 420 nM | GI50 [7]: 9500 ± 1000 nM | GI50 [8]: 650 ± 250 nM | GI50 [9]: 500 ± 33 nM | GI50 [10]: 2700 ± 930 nM | clearance ([11]; plasma): 24 mL/min/kg | half-life ([11]; plasma, read-out: half-life (plasma) (converted)): 4.1 h | Vd ([11]; plasma, read-out: volume of distribution): 2.5 L/kg | half-life ([11]; read-out: elimination half-life in the tumor (converted)): 22 h | Kp ([11]; tumor versus plasma, read-out: tissue/plasma AUC0-24h ratio): 4.7 | IC50 [12]: 4.4 nM
